Test results reported in article PMC12311895, “Single-Molecule Protein Interactions and Unfolding Revealed by Plasmon-Enhanced Fluorescence” (Analytical Chemistry, 2025).

Key:
[1] = target: T1, Erbin PDZ (MBP-PDZ immobilized on gold nanorods via DNA) (Homo sapiens, UniProt Q96RT1); experiment: single-molecule plasmon-enhanced fluorescence binding kinetics of PDZ-peptide interaction
T1 construct: Since neither the utilized PDZ domain nor MBP contains natural cysteines; single introduced cysteine in the linker between MBP and PDZ (handle for DNA coupling); host or cells: E. coli BL21(DE3)
T1 sequence (Q96RT1 1321-1410 limits assumed): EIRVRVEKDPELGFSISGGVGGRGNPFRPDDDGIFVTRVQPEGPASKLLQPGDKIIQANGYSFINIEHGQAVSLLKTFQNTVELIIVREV

[2] = unspecific binding of labeled peptide to DNA-coated gold nanoparticles without protein (negative control); settings: DNA decorated, 0 proteins per particle; 60 ms exposure, 1 nM labeled peptide in PBS
Text: 2 Characterization of the PDZ-peptide binding interactions. (A) Typical microcopy FOV of the immobilized gold nanoparticles. Each FOV (∼ 43 μm by 43 μm) typically contains around 100 stochastically immobilized particles, yielding average interparticle distances of several micrometers. A time trace of one of the gold nanoparticles is shown, on which the peptide–protein binding events can be seen as fluorescence bursts. An expanded region of the time trace showcases a few examples of individual bright-times and dark-times. (B) Typical signals obtained from peptide binding on a gold nanorod (blue) and on the glass (red). (C) Plot depicting the distribution of bright times (bound-state lifetimes) of the protein-peptide interactions, based on all recorded particles. […]
In order to quantify association kinetics and related particle-to-particle differences, analysis is based on the average dark time (t d ) in between events (unbound-state lifetime). […] The binding event frequency’s dependency on the number of proteins per particle was assessed through several measurements, using particle preparations with different average numbers of proteins per particle (Figure .D). […] Dim fluorescence signals that would have been lost in unenhanced studies can now readily be detected, giving rise to more accurate event detection, and thus, a more representative k on value.

[3] = tested on: PDZ directly conjugated to gold nanorods; experiment: peptide binding to PDZ conjugated directly to gold nanorods via a cysteine linker; settings: direct conjugation to gold nanorods via cysteine linker, no DNA
Text: In this study we utilize single-crystalline GNPs (nanorods) to probe protein–protein interactions at the single-molecule level. To facilitate single-molecule studies the particles are immobilized onto a glass coverslip to enable the imaging of single nanoparticles. Before immobilization, we conjugated protein (PDZ) to the nanoparticles using a solution-phase protocol. We initially tried direct conjugation of PDZ to the gold nanorods via a cysteine linker. […] We then developed a DNA-mediated conjugation approach. This approach, through the rigid nature of double-stranded DNA, allows for control over the time-average distance between the proteins and the GNPs. This controlled distance is crucial, as it prevents a direct interaction between the protein and the gold, thereby preventing denaturation. Moreover, it still allows the proteins to be placed close to the gold nanorods, which facilitates potent fluorescence enhancement of the fluorescently labeled binding partners (Supplementary Figure 1).

PDZ = settings: reference number not printed at place (probably ref 20), cited from earlier work
Text: From a double-exponential fit we extracted characteristic bound-state lifetimes of 16 ± 1 and 83 ± 16 ms, corresponding to k off values of 61 ± 5 and 12 ± 3 s^–1. The slow dissociation rate constant is similar to previously reported values for the same interaction with immobilized peptides (k off ≈ 6.3 s^–1). […] The underlying molecular mechanism leadi ... || In order to quantify association kinetics and related particle-to-particle differences, analysis is based on the average dark time (t d ) in between events (unbound-state lifetime). Together with the number of proteins per particle (n), and the concentration of the labeled peptide solution (c i ), it follows that kon=1/tdcin . The binding event frequency’s dependency on the number of proteins per particle was assessed through several measurements, using particle preparations with different average numbers of proteins per particle (Figure .D). Herein, a control sample (DNA decorated, 0 proteins ...

[4] = tested on: PDZ (MBP-PDZ immobilized on gold nanorods); experiment: urea-mediated unfolding/refolding of immobilized PDZ, read out by peptide binding kinetics; type: biochemical
Text: Next, we employed the platform to monitor protein unfolding and refolding. […] After validating that the observed event rate decrease was not caused by protein dissociation from the GNPs (Supplementary Figure 8), we next characterized the concentration dependency of this urea-mediated PDZ unfolding (Figure B). The protein-peptide binding frequency, and thus PDZ conformational integrity, clearly decreases in a urea concentration-dependent manner.
3 Urea-mediated PDZ denaturation. […] (B) Left/blue data points: PDZ-peptide binding event frequencies at different urea concentrations. To prevent cumulative and/or time-mediated influences, measurements at each concentration were performed with a fresh sample. Error bars represent the effect of each sample’s Poisson distribution of the number of proteins per particle on the average binding frequencies. Right/green data points: PDZ-peptide binding event frequencies of a similar sample, after incubation at 6.4 M urea and subsequent removal thereof. (C) Bright-time distribution of the PDZ-peptide binding events at different urea concentrations. […] The 95% confidence interval is obtained by propagating 1.96 SE of the corresponding tb fits.
5 minute steps at 5000 rpm each). After each centrifugation step, supernatants were discarded, and pellets were re-dissolved (200 µL of 25 mM HEPES (pH 7.4) after the first spin step, 200 µL of milliQ after step 2 and 3, and 150 µL of 10 mM HEPES (pH 7.4) + 0.0025 w/v% Tween20 + 1 mM MgCl2 after step 4.
For each reaction, 5.0 µL of protein-DNA conjugate was added to a 150 µL particle solution as prepared above. Added protein-DNA concentrations varied from 250 pM to 2 µM depending on the desired number of proteins per particle.
Reactions were either incubated for 2 hours at room temperature (~21 °C), or overnight in the fridge (4 °C). After incubation, 1.5 µL of 20 w/v% BSA in PBS was added to each sample, following an additional 15 minutes of incubation.
Next, samples were washed using 4 centrifugal steps (5 minutes at 5000 rpm and 4 °C each). After each spin step, supernatants were removed, and particles were re-suspended using 10 mM HEPES pH 7.4, 0.0025 w/v% Tween20, 1 mM MgCl2, 0.2 w/v% BSA (150 µL after step 1-3, 75 µL after step 4).
Functionalized gold nanoparticle concentrations were determined through absorption measurements on a Thermo Scientific Nanodrop 2000 apparatus. Fluorescence spectroscopy-based protein quantifications were performed through fluorescence measurements on a Varioskan Lux platereader (500 nm excitation, 12nm bandwidth, low dynamic range, […]
Sample preparation for microscopy measurements
Glass microscopy slides (Menzel #1.5 24*40 mm) were sonicated in MeOH for 15 minutes, and blown dry using nitrogen gas afterwards. Next, slides were plasma treated for 1 minute. Imaging spacer stickers were added to the cleaned glass slides. Particles were diluted to OD = 0.1 (at 650 nm, 1 cm pathlength) in PBS, and for each sample 50 µL was pipetted into the imaging spacer. Samples were incubated for at least 5 minutes, after which the majority of particles were firmly immobilized. Depending on the measurement, samples were used as described, or briefly washed with PBS (unfolding/refolding measurements).
Fluorescence microscopy measurements
Samples were measured through fluorescence microscopy. The utilized setup’s main components consi sted of a Coherent OBIS 637 nm laser, Nikon eclipse Ti2 microscope body, Apo TIRF 60x 1.49 NA DIC N2 Oil objective, and Prime BSI Express CMOS camera. All measurements were performed using TIRF illumination. Sample and imaging conditions […]
Table S.2. Sample and imaging conditions per experiment.
Experiment/associated Laser power (mW): Exposure (ms): Labeled peptide
Figure(s): concentration (nM):
Kinetic analysis – 50 20 1 dissociation kinetics. Figure
Kinetic analysis: association 50 60 1 […]
Peptide and urea solutions were all prepared in PBS. […]

[5] = tested on: ATTO 532-PDZ decorated gold nanoparticles; experiment: stability of GNP-protein conjugate to urea (fluorescence of ATTO 532-PDZ on particles); settings: 4 M urea, 15 minutes, then exchanged for PBS; five particles, 532 nm laser
Description: Supplementary Figure 7. Fluorescence polarization curve of the interaction between MBP-PDZ (no DNA attached) ௣ ) + Aଶ , yields a Kd (x0) of 0.2 µM (p set to 1 and ATTO 655-labeled peptide. The fit (y =((Aଵ −Aଶ )/(1 + ቀ[௣௥௢௧௘௜௡ ]௄೏ ቁ to represent 1:1 binding). Measurement performed with 10 nM peptide in 10 mM HEPES pH 7.4, 150 mM NaCl, 0.1 v/v% Tween 20, 0.1 w/v% BSA, 1 mM DTT.
Supplementary Figure 8. Mean fluorescence intensities of five ATTO 532- PDZ decorated gold nanoparticles before and after exposure to 4 M urea. Immobilized particles were briefly imaged with a 532 nm laser before exposure to urea, with bare PBS in the bulk solution. Next, the laser was turned off, urea was added towards 4 M, and the sample was incubated for 15 minutes. Afterwards, the urea solution was exchanged for fresh PBS, the laser turned on, and fluorescence intensities measured again.
ATTO 532-labeled PDZ proteins remained on the particles.
(also on this page, place not known: inte raction =( (Aଵ −A ଶ)/(1 ቀ [௣௥௢௧௘௜௡] ௄೏ 350Polarization (mP) P1, before P1, after P2, before P2, after P3, before P3, after P4, before P4, after P5, before P5, after 8000Mean fluorescence intensity (counts))

Compound	distribution of bound-state lifetimes ([1]; all particles (Figure 2C), also on single particles (Supplementary Figure 6))	characteristic bound-state lifetime, short component ([1]; double-exponential fit of bright times, all recorded particles, 20 ms exposure, 50 mW 637 nm laser, TIRF, 1 nM labeled peptide in PBS) [ms]	characteristic bound-state lifetime, long component ([1]; double-exponential fit of bright times, all recorded particles, 20 ms exposure, 50 mW 637 nm laser, TIRF, 1 nM labeled peptide in PBS, less frequent events) [ms]	k on ([1]; linear fit of event frequency vs average number of proteins per particle, kon=1/tdcin, 60 ms exposure, 50 mW, 1 nM labeled peptide in PBS)	slope of binding event frequency vs number of proteins per particle ([1]; linear fit, intercept 0, 60 ms exposure, 1 nM labeled peptide in PBS) [mHz/protein]	event frequency on control particles (unspecific binding) [2] [mHz]	peptide binding of directly conjugated PDZ [3]	k on (previously reported) (PDZ; PAINT experiments)	k off (previously reported) (PDZ; same interaction with immobilized peptides, integration time 60 ms)	average PDZ-peptide binding event frequency at 0.2 M urea ([4]; 0.2 M urea, 2 nM labeled peptide in PBS, within Poisson distribution)	time for refolding of PDZ after urea removal ([4]; after 6.4 M urea, time required for fluid exchange and initiation of imaging) [min]	k off values at different urea concentrations ([4]; based on dominant short lifetimes of double exponential fits, 2 nM labeled peptide in PBS, 40 ms exposure)	bound-state lifetimes for increasing urea concentrations ([4]; bright time distributions, 2 nM labeled peptide in PBS, 40 ms exposure)	PDZ-peptide binding frequency after removal of urea (refolding) ([4]; pre-incubation with 6.4 M urea for 20 minutes, then washed, 2 nM labeled peptide in PBS)	occurrence of PDZ-peptide interactions at 4.0 M urea ([4]; time traces of a particle before and after 4.0 M urea, 2 nM labeled peptide in PBS)	fluorescence intensity of ATTO 532-PDZ decorated particles after urea exposure [5]
H-[C(ATTO655)]GAGRGSIDTWV-OH [ATTO 655-labeled peptide, Atto-655 labeled peptide purchased from SB Peptide]	double exponential	16 ± 1	83 ± 16	(1.2 ± 0.1) × 10^7 M^–1 s^–1	12	2	no peptide binding	≈ 3.6 × 10^5 M^–1 s^–1	≈ 6.3 s^–1							
NC(N)=O [urea]										slight increase	≤ 1	no significant deviations	did not significantly change	recovered toward initial levels	terminates the occurrence of PDZ-peptide interactions	no reduced fluorescence intensities
